Data taken from patent US11702404B2, “GLP-1R modulating compounds” (priority 2019, dated 2023).
Read-outs that look alike come from different tables or passages of the source.

Key:
[1] = Microsomal stability, human liver microsomes (predicted hepatic clearance); conditions: predicted from in vitro microsomal stability data
GLP-1R = GLP-1R (Homo sapiens, UniProt P43220); assay: GLP-1R activation: cAMP increase in CHO cells stably expressing GLP-1R; type: cell-based
[2] = cAMP increase, CHO cells stably expressing GLP-1R, 10 point dose response, 30 minutes incubation, read-out: EC50

Sequence of GLP-1R (P43220 24-463): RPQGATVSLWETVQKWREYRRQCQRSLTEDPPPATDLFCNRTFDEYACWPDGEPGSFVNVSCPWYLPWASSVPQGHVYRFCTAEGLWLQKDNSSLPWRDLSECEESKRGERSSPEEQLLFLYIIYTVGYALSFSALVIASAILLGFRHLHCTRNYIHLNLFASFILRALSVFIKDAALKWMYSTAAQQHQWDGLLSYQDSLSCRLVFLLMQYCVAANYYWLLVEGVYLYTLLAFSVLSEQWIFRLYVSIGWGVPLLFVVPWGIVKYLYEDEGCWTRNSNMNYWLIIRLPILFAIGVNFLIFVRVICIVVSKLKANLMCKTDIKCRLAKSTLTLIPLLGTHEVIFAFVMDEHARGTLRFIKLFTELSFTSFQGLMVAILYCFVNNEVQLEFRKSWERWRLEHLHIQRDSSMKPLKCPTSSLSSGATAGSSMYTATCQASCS

| Predicted Hepatic Clearance (Pred. Cl.) [1] [mL/min/kg] | EC50 (GLP-1R; [2]) [nM] | SMILES | EC50 (GLP-1R; EC50 (nM)) [nM] |
| --- | --- | --- | --- |
| 2.62 | 21.2 | N#Cc1ccc(COc2cccc(-c3ccc(Cc4nc5ccc(C(=O)O)cc5n4CC4(CF)CC4)c(C#N)c3)n2)c(F)c1 [Example 286, 2-(2-cyano-4-(6-((4-cyano-2-fluorobenzyl)oxy)pyridin-2-yl)benzyl)-1-((1-(fluoromethyl)cyclopropyl)methyl)-1H-benzo[d]imidazole-6-carboxylic acid] |  |
| 10.5 | 0.14 | N#CCC1(Cn2c(Cc3ccc(-c4cccc(OCc5ccc(C#N)cc5F)n4)c(F)c3)nc3c(F)cc(C(=O)O)cc32)CC1 [Example 287, 2-(4-(6-((4-cyano-2-fluorobenzyl)oxy)pyridin-2-yl)-3-fluorobenzyl)-1-((1-(cyanomethyl)cyclopropyl)methyl)-4-fluoro-1H-benzo[d]imidazole-6-carboxylic acid] |  |
| 5.08 | 0.76 | N#Cc1ccc(COc2cccc(-c3ccc(Cc4nc5c(F)cc(C(=O)O)cc5n4CC4(C(F)F)CC4)cc3F)n2)c(F)c1 [Example 288, 2-(4-(6-((4-cyano-2-fluorobenzyl)oxy)pyridin-2-yl)-3-fluorobenzyl)-1-((1-(difluoromethyl)cyclopropyl)methyl)-4-fluoro-1H-benzo[d]imidazole-6-carboxylic acid] |  |
| 1.92 | 3.02 | N#Cc1ccc(COc2cccc(-c3ccc(Cc4nc5ccc(C(=O)O)cc5n4CC4(Br)CC4)c(F)c3)n2)c(F)c1 [Example 289, 1-((1-bromocyclopropyl)methyl)-2-(4-(6-((4-cyano-2-fluorobenzyl)oxy)pyridin-2-yl)-2-fluorobenzyl)-1H-benzo[d]imidazole-6-carboxylic acid] |  |
| 8.42 | 62.3 | CN(C)CC1(Cn2c(Cc3ccc(-c4cccc(OCc5ccc(C#N)cc5F)n4)cc3F)nc3ccc(C(=O)O)cc32)CC1 [Example 290, 2-(4-(6-((4-cyano-2-fluorobenzyl)oxy)pyridin-2-yl)-2-fluorobenzyl)-1-((1-((dimethylamino)methyl)cyclopropyl)methyl)-1H-benzo[d]imidazole-6-carboxylic acid] |  |
| <1.83 | 1.06 | COCCC1(Cn2c(Cc3ccc(-c4cccc(OCc5ccc(C#N)cc5F)n4)cc3F)nc3ccc(C(=O)O)cc32)CC1 [Example 291, 2-(4-(6-((4-cyano-2-fluorobenzyl)oxy)pyridin-2-yl)-2-fluorobenzyl)-1-((1-(2-methoxyethyl)cyclopropyl)methyl)-1H-benzo[d]imidazole-6-carboxylic acid] |  |
| 9.5 | 49.4 | N#Cc1ccc(COc2cccc(-c3ccc(Cc4nc5ccc(C(=O)O)cc5n4CC4(c5cccnc5)CC4)c(F)c3)n2)c(F)c1 [Example 292, 2-(4-(6-((4-cyano-2-fluorobenzyl)oxy)pyridin-2-yl)-2-fluorobenzyl)-1-((1-(pyridin-3-yl)cyclopropyl)methyl)-1H-benzo[d]imidazole-6-carboxylic acid] |  |
| <1.83 | 3.13 | N#Cc1ccc(COc2cccc(-c3ccc(Cc4nc5ccc(C(=O)O)cc5n4CC4(C5CC5)CC4)c(F)c3)n2)c(F)c1 [Example 293, 1-([1,1′-bi(cyclopropan)]-1-ylmethyl)-2-(4-(6-((4-cyano-2-fluorobenzyl)oxy)pyridin-2-yl)-2-fluorobenzyl)-1H-benzo[d]imidazole-6-carboxylic acid] |  |
| 8.3 | 2.12 | CC(C)(Cn1c(Cc2ccc(-c3cccc(OCc4ccc(C#N)cc4F)n3)c(F)c2)nc2ccc(C(=O)O)cc21)C(F)F [Example 295, 2-(4-(6-((4-cyano-2-fluorobenzyl)oxy)pyridin-2-yl)-3-fluorobenzyl)-1-(3,3-difluoro-2,2-dimethylpropyl)-1H-benzo[d]imidazole-6-carboxylic acid] |  |
| 5.33 | 0.08 | N#CCC1(Cn2c(Cc3ccc(-c4cccc(OCc5ccc(C#N)cc5F)n4)cc3F)nc3c(F)cc(C(=O)O)cc32)CC1 [Example 296, 2-(4-(6-((4-cyano-2-fluorobenzyl)oxy)pyridin-2-yl)-2-fluorobenzyl)-1-((1-(cyanomethyl)cyclopropyl)methyl)-4-fluoro-1H-benzo[d]imidazole-6-carboxylic acid] |  |
| 2.5 | 1.71 | N#Cc1ccc(COc2cccc(-c3ccc(Cc4nc5c(F)cc(C(=O)O)cc5n4CC4(C(F)F)CC4)c(F)c3)n2)c(F)c1 [Example 297, 2-(4-(6-((4-cyano-2-fluorobenzyl)oxy)pyridin-2-yl)-2-fluorobenzyl)-1-((1-(difluoromethyl)cyclopropyl)methyl)-4-fluoro-1H-benzo[d]imidazole-6-carboxylic acid] |  |
| <1.83 | 4.75 | N#Cc1ccc(COc2nccc(-c3cc(F)c(Cc4nc5ccc(C(=O)O)nc5n4CC4(CF)CC4)c(F)c3)n2)c(F)c1 [Example 298, 2-(4-(2-((4-cyano-2-fluorobenzyl)oxy)pyrimidin-4-yl)-2,6-difluorobenzyl)-3-((1-(fluoromethyl)cyclopropyl)methyl)-3H-imidazo[4,5-b]pyridine-5-carboxylic acid] |  |
| 5.17 | 0.4 | N#Cc1ccc(COc2nccc(-c3ccc(Cc4nc5c(F)cc(C(=O)O)cc5n4CC4(CF)CC4)cc3F)n2)c(F)c1 [Example 299, 2-(4-(2-((4-cyano-2-fluorobenzyl)oxy)pyrimidin-4-yl)-3-fluorobenzyl)-4-fluoro-1-((1-(fluoromethyl)cyclopropyl)methyl)-1H-benzo[d]imidazole-6-carboxylic acid] |  |
| <1.83 | 0.68 | N#CCC1(Cn2c(Cc3ccc(-c4ccnc(OCc5ccc(C#N)cc5F)n4)c(F)c3)nc3ccc(C(=O)O)nc32)CC1 [Example 300, 2-(4-(2-((4-cyano-2-fluorobenzyl)oxy)pyrimidin-4-yl)-3-fluorobenzyl)-3-((1-(cyanomethyl)cyclopropyl)methyl)-3H-imidazo[4,5-b]pyridine-5-carboxylic acid] |  |
| 2.67 | 1.21 | N#Cc1ccc(COc2nccc(-c3ccc(Cc4nc5ccc(C(=O)O)nc5n4CC4(CF)CC4)cc3F)n2)c(F)c1 [Example 302, 2-(4-(2-((4-cyano-2-fluorobenzyl)oxy)pyrimidin-4-yl)-3-fluorobenzyl)-3-((1-(fluoromethyl)cyclopropyl)methyl)-3H-imidazo[4,5-b]pyridine-5-carboxylic acid] |  |
| 4 | 1.33 | N#CCC1(Cn2c(Cc3ccc(-c4ccnc(OCc5ccc(C#N)cc5F)n4)c(F)c3)nc3c(F)cc(C(=O)O)cc32)CC1 [Example 303, 2-(4-(2-((4-cyano-2-fluorobenzyl)oxy)pyrimidin-4-yl)-3-fluorobenzyl)-1-((1-(cyanomethyl)cyclopropyl)methyl)-4-fluoro-1H-benzo[d]imidazole-6-carboxylic acid] |  |
| 5.33 | 0.5 | COCCn1c(Cc2cc(F)c(-c3cccc(OCc4ccc(C#N)cc4F)n3)cc2Cl)nc2ccc(C(=O)O)cc21 [Example 304, 2-(2-chloro-4-(6-((4-cyano-2-fluorobenzyl)oxy)pyridin-2-yl)-5-fluorobenzyl)-1-(2-methoxyethyl)-1H-benzo[d]imidazole-6-carboxylic acid] |  |
| 4.67 | 1.25 | N#CCCn1c(Cc2cc(F)c(-c3cccc(OCc4ccc(C#N)cc4F)n3)cc2F)nc2ccc(C(=O)O)cc21 [Example 305, 2-(4-(6-((4-cyano-2-fluorobenzyl)oxy)pyridin-2-yl)-2,5-difluorobenzyl)-1-(2-cyanoethyl)-1H-benzo[d]imidazole-6-carboxylic acid] |  |
| 5.33 | 7.96 | N#Cc1ccc(COc2cccc(-c3cc(F)c(Cc4nc5ccc(C(=O)O)cc5n4CC4COC4)cc3F)n2)c(F)c1 [Example 307, 2-(4-(6-((4-cyano-2-fluorobenzyl)oxy)pyridin-2-yl)-2,5-difluorobenzyl)-1-(oxetan-3-ylmethyl)-1H-benzo[d]imidazole-6-carboxylic acid] |  |
| 5.83 | 1.26 | N#Cc1ccc(COc2cccc(-c3cc(F)c(Cc4nc5ccc(C(=O)O)cc5n4CC4(C(F)F)COC4)cc3F)n2)c(F)c1 [Example 308, 2-(4-(6-((4-cyano-2-fluorobenzyl)oxy)pyridin-2-yl)-2,5-difluorobenzyl)-1-((3-(difluoromethyl)oxetan-3-yl)methyl)-1H-benzo[d]imidazole-6-carboxylic acid] |  |
| 5.17 | 2.16 | COCCn1c(Cc2cc(F)c(-c3cccc(OCc4ccc(C#N)cc4F)n3)cc2F)nc2ccc(C(=O)O)c(F)c21 [Example 309, 2-(4-(6-((4-cyano-2-fluorobenzyl)oxy)pyridin-2-yl)-2,5-difluorobenzyl)-7-fluoro-1-(2-methoxyethyl)-1H-benzo[d]imidazole-6-carboxylic acid] |  |

| SMILES | Predicted Hepatic Clearance (Pred. Cl.) [1] [mL/min/kg] | EC50 (GLP-1R; [2]) [nM] | EC50 (GLP-1R; EC50 (nM)) [nM] |
| --- | --- | --- | --- |
| CC(C)(CF)Cn1c(Cc2ccc(-c3cccc(OCc4ccc(C#N)cc4F)n3)c(F)c2)nc2ccc(C(=O)O)cc21 [Example 294, 2-(4-(6-((4-cyano-2-fluorobenzyl)oxy)pyridin-2-yl)-3-fluorobenzyl)-1-(3-fluoro-2,2-dimethylpropyl)-1H-benzo[d]imidazole-6-carboxylic acid] | 8.3 |  | 0.75 |
| COCCn1c(Cc2cc(F)c(-c3cccc(OCc4ccc(C#N)cc4F)n3)cc2F)nc2c(F)cc(C(=O)O)cc21 [Example 301, 2-(4-(6-((4-cyano-2-fluorobenzyl)oxy)pyridin-2-yl)-2,5-difluorobenzyl)-4-fluoro-1-(2-methoxyethyl)-1H-benzo[d]imidazole-6-carboxylic acid] | 5.05 |  | 0.73 |
